According to US7998940B2, “Aptamers to von Willebrand factor and their use as thrombotic disease therapeutics” (Archemix Corp., priority 2004, dated 2011):
Oligonucleotides are written 5' to 3', each unit as a sugar letter and its base; * is a phosphorothioate linkage, no mark a phosphodiester; rarer units and linkages stand in square brackets, end groups in braces. Plain capitals give the bases only. [invdT] = inverted (3'-3') thymidine; d = 2'-deoxy (DNA); m = 2'-O-methyl

System: full length human vWF (SEQ ID NO 7)
Assay: dot blot KD determination and extent of binding, full length human vWF;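 further: dot blot binding of aptamers to full length human vWF across a protein titration, incubated 30 minutes at room temperature in 1x DPBS with BSA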
Details: Phase 1 modification; for % binding @ 100 nM vWF: extent of aptamer binding at 100 nM full length human vWF; for Kd: full length human vWF, dot blot, 8 point protein titration, read-out: KD
Procedure: Based on this initial screen, KDs were determined for 3 of the vWF dependent binding sequences using the dot blot assay. […] A 12 point protein titration was used in the dot blot assay (300 nM, 100 nM, 30 nM, 10 nM, 3 nM, 1 nM, 300 pM, 100 pM, 30 pM, 10 pM, 3 pM, 0 pM) in 1×DPBS plus 0.1 mg/mL BSA at room temperature for 30 minutes.
An 8 point protein titration was used in the dot blot binding assay (100n M, 30 nM, 10 nM, 3 nM, 1 nM, 300 pM, 100 pM, 0 pM)) in 1× Dulbecco's PBS containing 0.1 BSA (final volume of 50 uL) for 30 minutes at room temperature.

ARC1229: ARC1172 with one residue replaced by 2'-O methyl residue (dGdGdCdGdTdGdCdAdGdTdGdCdCdTdTdCdGdGdCdCdGdTdGdCdGdGdTdGdCdCdTdCdCdGdTmCdAdCdGdCdC[invdT]; aptamer)
% binding @ 100 nM vWF: 37% | Kd: 5 nM

ARC1230: ARC1172 with one residue replaced by 2'-O methyl residue (dGdGdCdGdTdGdCdAdGdTdGdCdCdTdTdCdGdGdCdCdGdTdGdCdGdGdTdGdCdCdTdCdCdGdTdCmAdCdGdCdC[invdT]; aptamer)
% binding @ 100 nM vWF: 46% | Kd: 3 nM

ARC1231: ARC1172 with one residue replaced by 2'-O methyl residue (dGdGdCdGdTdGdCdAdGdTdGdCdCdTdTdCdGdGdCdCdGdTdGdCdGdGdTdGdCdCdTdCdCdGdTdCdAmCdGdCdC[invdT]; aptamer)
% binding @ 100 nM vWF: 50% | Kd: 1 nM

ARC1232: ARC1172 with one residue replaced by 2'-O methyl residue (dGdGdCdGdTdGdCdAdGdTdGdCdCdTdTdCdGdGdCdCdGdTdGdCdGdGdTdGdCdCdTdCdCdGdTdCdAdCmGdCdC[invdT]; aptamer)
% binding @ 100 nM vWF: 51% | Kd: 1 nM

ARC1233: ARC1172 with one residue replaced by 2'-O methyl residue (dGdGdCdGdTdGdCdAdGdTdGdCdCdTdTdCdGdGdCdCdGdTdGdCdGdGdTdGdCdCdTdCdCdGdTdCdAdCdGmCdC[invdT]; aptamer)
% binding @ 100 nM vWF: 39% | Kd: 2 nM

ARC1234: ARC1172 with one residue replaced by 2'-O methyl residue (dGdGdCdGdTdGdCdAdGdTdGdCdCdTdTdCdGdGdCdCdGdTdGdCdGdGdTdGdCdCdTdCdCdGdTdCdAdCdGdCmC[invdT]; aptamer)
% binding @ 100 nM vWF: 42% | Kd: 2 nM

ARC1235: ARC1172 with composite 2'-O methyl replacements in the stem regions (mGmGdCmGdTmGdCdAdGdTdGdCdCdTdTdCdGdGdCdCdGdTdGdCdGdGdTdGdCdCdTdCdCdGdTdCmAdCmGdCdC[invdT]; aptamer)
% binding @ 100 nM vWF: 23% | Kd: 13 nM

ARC1236: ARC1172 with composite 2'-O methyl replacements in the stem regions (dGdGmCdGmUdGdCdAdGdTdGdCdCdTdTdCdGdGdCdCdGdTdGdCdGdGdTdGdCdCdTdCdCdGdTmCdAmCdGmCmC[invdT]; aptamer)
% binding @ 100 nM vWF: 32% | Kd: 3 nM

ARC1237: ARC1172 with composite 2'-O methyl replacements in the stem regions (mGmGmCmGmUmGdCdAdGdTdGdCdCdTdTdCdGdGdCdCdGdTdGdCdGdGdTdGdCdCdTdCdCdGdTmCmAmCmGmCmC[invdT]; aptamer)
% binding @ 100 nM vWF: 9% | Kd: 41 nM

ARC1238: ARC1172 with composite 2'-O methyl replacements in the stem regions (dGdGdCdGdTdGdCdAdGdTmGdCdCdTdTdCmGmGdCdCdGdTdGdCdGdGdTdGdCdCdTdCdCdGdTdCdAdCdGdCdC[invdT]; aptamer)
% binding @ 100 nM vWF: 43% | Kd: 2 nM

ARC1239: ARC1172 with composite 2'-O methyl replacements in the stem regions (dGdGdCdGdTdGdCdAdGdTdGmCmCdTdTdCdGdGmCdCdGdTdGdCdGdGdTdGdCdCdTdCdCdGdTdCdAdCdGdCdC[invdT]; aptamer)
% binding @ 100 nM vWF: 37% | Kd: 5 nM

ARC1240: ARC1172 with composite 2'-O methyl replacements in the stem regions (dGdGdCdGdTdGdCdAdGdTmGmCmCdTdTdCmGmGmCdCdGdTdGdCdGdGdTdGdCdCdTdCdCdGdTdCdAdCdGdCdC[invdT]; aptamer)
% binding @ 100 nM vWF: 40% | Kd: 4 nM
